# Reference: ChEMBL document CHEMBL4622861, “Synthesis and biological evaluation of 6-nitro-1,2,4-triazoloazines containing polyphenol fragments possessing antioxidant and antiviral activity” (Bioorg Med Chem Lett, 2020)
# pIC50: −log10 of the molar value. Active and inactive are the calls of the source. No cut-off for these calls is given here.
# Assays:
# [1] = Inhibition of M2 proton channel in Influenza A virus (A/Puerto Rico/8/34(H1N1)) infected in MDCK cells assessed as inhibition of viral infection; assay type: cell-based, Influenza A virus (A/Puerto Rico/8/1934(H1N1))
# [2] = Cytotoxicity against MDCK cells; assay type: cell-based, Canis lupus familiaris; details: dog
# [3] = test system: M2 proton channel of Influenza A virus; assay: Selectivity index, ratio of CC50 for MDCK cells to IC50 for M2 proton channel in Influenza A virus (A/Puerto Rico/8/34(H1N1) ) infected in MDCK cells assessed as inhibition of viral infection; assay type: toxicity, cell-based; details: dog, read-out: Ratio CC50/IC50
# [4] = Antioxidant activity in K3[Fe(CN)6]/K4[Fe(CN)6] system by potentiometric method; assay type: functional
# Influenza A virus [5] = assay: Antiviral activity against Influenza A virus (A/Puerto Rico/8/34(H1N1)) infected in MDCK cells assessed as reduction in viral titer at 50 uM measured at 0 to 2 hrs post-infection; assay type: functional, organism-based; details: A/Puerto Rico/8/1934(H1N1)
# Influenza A virus [6] = assay: Antiviral activity against Influenza A virus (A/Puerto Rico/8/34(H1N1)) infected in MDCK cells assessed as reduction in viral titer at 50 uM measured at 0 to 8 hrs post-infection; assay type: functional, organism-based; details: A/Puerto Rico/8/1934(H1N1)
# Influenza A virus [7] = assay: Antiviral activity against Influenza A virus (A/Puerto Rico/8/34(H1N1)) infected in MDCK cells assessed as reduction in viral titer at 100 uM measured after 4 hrs post-infection; assay type: functional, organism-based; details: A/Puerto Rico/8/1934(H1N1)
# [8] = molecular target: Hemagglutinin (Influenza A virus (A/Puerto Rico/8/1934(H1N1))) (UniProt P03452); assay: Inhibition of Hemagglutinin in Influenza A virus (A/Puerto Rico/8/34(H1N1)) assessed as reduction in virus-induced agglutination of chicken erythrocytes at 50 uM
# Chain of Hemagglutinin (Influenza A virus (A/Puerto Rico/8/1934(H1N1))) (P03452 whole entry): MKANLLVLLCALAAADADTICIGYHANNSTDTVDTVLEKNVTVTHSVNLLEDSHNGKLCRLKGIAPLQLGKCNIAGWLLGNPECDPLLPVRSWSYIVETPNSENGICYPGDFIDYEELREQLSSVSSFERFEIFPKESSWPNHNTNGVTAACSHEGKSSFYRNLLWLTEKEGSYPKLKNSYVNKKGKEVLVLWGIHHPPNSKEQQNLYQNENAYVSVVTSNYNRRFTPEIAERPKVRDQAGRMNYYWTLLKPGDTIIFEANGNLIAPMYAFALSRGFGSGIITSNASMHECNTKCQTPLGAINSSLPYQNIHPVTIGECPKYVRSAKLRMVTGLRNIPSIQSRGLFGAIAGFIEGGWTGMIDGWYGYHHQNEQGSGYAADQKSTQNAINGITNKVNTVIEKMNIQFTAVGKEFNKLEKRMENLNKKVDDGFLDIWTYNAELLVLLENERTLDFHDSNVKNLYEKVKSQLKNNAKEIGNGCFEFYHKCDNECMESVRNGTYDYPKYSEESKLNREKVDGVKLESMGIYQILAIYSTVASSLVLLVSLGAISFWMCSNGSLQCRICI
# Influenza A virus [9] = assay: Antiviral activity against Influenza A virus (A/Puerto Rico/8/34(H1N1)) infected in MDCK cells assessed as reduction in viral titer at 100 uM measured at 0 to 2 hrs post-infection; assay type: functional, organism-based; details: A/Puerto Rico/8/1934(H1N1)
# Influenza A virus [10] = assay: Antiviral activity against Influenza A virus (A/Puerto Rico/8/34(H1N1)) infected in MDCK cells assessed as reduction in viral titer at 100 uM measured at 0 to 8 hrs post-infection; assay type: functional, organism-based; details: A/Puerto Rico/8/1934(H1N1)
# Influenza A virus [11] = assay: Antiviral activity against Influenza A virus (A/Puerto Rico/8/34(H1N1)) infected in MDCK cells assessed as reduction in viral titer at 50 uM measured after 4 hrs post-infection; assay type: functional, organism-based; details: A/Puerto Rico/8/1934(H1N1)
# [12] = molecular target: Hemagglutinin (Influenza A virus (A/Puerto Rico/8/1934(H1N1))) (UniProt P03452); assay: Inhibition of Hemagglutinin in Influenza A virus (A/Puerto Rico/8/34(H1N1)) assessed as reduction in virus-induced agglutination of chicken erythrocytes at 100 uM
structure (smiles),measurement,setting,value
CSc1nc2n(n1)C(O)C([N+](=O)[O-])=NN2 (configuration not stated),pIC50,[1],4.82
same,CC50,[2],99 µM
same,selectivity ratio,[3],7
O=[N+]([O-])C1=NNc2nc(C(F)(F)F)nn2C1c1ccc(O)c(O)c1O (configuration not stated),pIC50,[1],5.00
same,CC50,[2],67 µM
same,selectivity ratio,[3],7
O=[N+]([O-])C1=NNc2nc(C(F)(F)F)nn2C1c1c(O)cc(O)cc1O (configuration not stated),pIC50,[1],4.57
same,CC50,[2],252 µM
same,selectivity ratio,[3],9
O=[N+]([O-])C1=CNc2nc(C(F)(F)F)nn2C1O (configuration not stated),pIC50,[1],4.96
same,CC50,[2],33 µM
same,selectivity ratio,[3],3
CSc1nc2n(n1)C(c1ccc(O)cc1O)C([N+](=O)[O-])=NN2 (configuration not stated),pIC50,[1],4.74
same,CC50,[2],201 µM
same,selectivity ratio,[3],11
same,Activity,[4],inactive
O=[N+]([O-])C1=CNc2nc(C(F)(F)F)nn2C1c1ccc(O)c(O)c1 (configuration not stated),pIC50,[1],4.68
same,CC50,[2],1200 µM
same,selectivity ratio,[3],57
O=[N+]([O-])C1=NNc2nc(C(F)(F)F)nn2C1c1ccc(O)c(O)c1 (configuration not stated),pIC50,[1],< 3.92
same,CC50,[2],183 µM
same,selectivity ratio,[3],2
CSc1nc2n(n1)C(c1ccc(O)c(O)c1)C([N+](=O)[O-])=NN2 (configuration not stated),Activity,Influenza A virus [5],Active
same,pIC50,[1],4.36
same,CC50,[2],362 µM
same,selectivity ratio,[3],8
same,Activity,Influenza A virus [6],Active
same,Activity,Influenza A virus [7],Active
same,inhibition,[8],Active
O=[N+]([O-])C1=CNc2ncnn2C1c1ccc(O)c(O)c1 (configuration not stated),pIC50,[1],4.38
same,CC50,[2],368 µM
same,selectivity ratio,[3],9
O=[N+]([O-])C1=CNc2ncnn2C1c1c(O)cc(O)cc1O (configuration not stated),pIC50,[1],4.70
same,CC50,[2],> 1030 µM
same,selectivity ratio,[3],> 51
same,Activity,Influenza A virus [9],Active
same,Activity,Influenza A virus [10],Active
same,Activity,Influenza A virus [11],Active
same,inhibition,[12],Active
O=[N+]([O-])C1=CNc2nc(-c3ccco3)nn2C1,pIC50,[1],5.05
same,CC50,[2],108 µM
same,selectivity ratio,[3],13
O=[N+]([O-])C1=NNc2ncnn2C1c1ccc(O)c(O)c1O (configuration not stated),pIC50,[1],4.07
same,CC50,[2],228 µM
same,selectivity ratio,[3],3
O=[N+]([O-])C1=NNc2ncnn2C1c1c(O)cc(O)cc1O (configuration not stated),pIC50,[1],4.59
same,CC50,[2],119 µM
same,selectivity ratio,[3],5
O=[N+]([O-])C1=NNc2nc(C(F)(F)F)nn2C1O (configuration not stated),pIC50,[1],4.96
same,CC50,[2],40 µM
same,selectivity ratio,[3],4
O=[N+]([O-])C1=CNc2ncnn2C1O (configuration not stated),pIC50,[1],4.55
same,CC50,[2],123 µM
same,selectivity ratio,[3],4
O=[N+]([O-])C1=NNc2ncnn2C1c1ccc(O)cc1O (configuration not stated),pIC50,[1],4.47
same,CC50,[2],90 µM
same,selectivity ratio,[3],3
same,Activity,[4],inactive
CSc1nc2n(n1)C(c1ccc(O)c(O)c1O)C([N+](=O)[O-])=NN2 (configuration not stated),pIC50,[1],4.59
same,CC50,[2],196 µM
same,selectivity ratio,[3],8
same,Activity,[4],inactive
O=[N+]([O-])C1=CNc2ncnn2C1c1ccc(O)cc1O (configuration not stated),pIC50,[1],3.78
same,CC50,[2],> 1090 µM
same,selectivity ratio,[3],> 7
CSc1nc2n(n1)C(c1c(O)cc(O)cc1O)C([N+](=O)[O-])=NN2 (configuration not stated),pIC50,[1],4.64
same,CC50,[2],877 µM
same,selectivity ratio,[3],39
O=[N+]([O-])C1=CNc2nc(-c3ccco3)nn2C1c1ccc(O)c(O)c1 (configuration not stated),pIC50,[1],4.00
same,CC50,[2],> 1200 µM
same,selectivity ratio,[3],> 12
O=[N+]([O-])C1=CNc2nc(C(F)(F)F)nn2C1c1ccc(O)cc1O (configuration not stated),pIC50,[1],5.22
same,CC50,[2],258 µM
same,selectivity ratio,[3],43
O=[N+]([O-])C1=NNc2ncnn2C1c1ccc(O)c(O)c1 (configuration not stated),pIC50,[1],2.96
same,CC50,[2],> 1640 µM
same,selectivity ratio,[3],2
CC(N)C12CC3CC(CC(C3)C1)C2 (configuration not stated) [RIMANTADINE],pIC50,[1],6.52
same,CC50,[2],> 200 µM
same,selectivity ratio,[3],> 667
O=[N+]([O-])C1=CNc2nc(-c3ccco3)nn2C1c1c(O)cc(O)cc1O (configuration not stated),pIC50,[1],4.15
same,CC50,[2],280 µM
same,selectivity ratio,[3],4
O=[N+]([O-])C1=CNc2nc(C(F)(F)F)nn2C1c1c(O)cc(O)cc1O (configuration not stated),pIC50,[1],4.57
same,CC50,[2],838 µM
same,selectivity ratio,[3],32
O=[N+]([O-])C1=NNc2ncnn2C1O (configuration not stated),pIC50,[1],< 4.44
same,CC50,[2],87 µM
same,selectivity ratio,[3],2
O=[N+]([O-])C1=CNc2nc(-c3ccco3)nn2C1c1ccc(O)c(O)c1O (configuration not stated),pIC50,[1],4.01
same,CC50,[2],317 µM
same,selectivity ratio,[3],3
O=[N+]([O-])C1=CNc2nc(-c3ccco3)nn2C1c1ccc(O)cc1O (configuration not stated),pIC50,[1],5.05
same,CC50,[2],119 µM
same,selectivity ratio,[3],14
CCC(CC)O[C@@H]1C=C(C(=O)O)C[C@H](N)[C@H]1NC(C)=O [OSELTAMIVIR CARBOXYLATE],pIC50,[1],4.89
same,CC50,[2],66 µM
same,selectivity ratio,[3],5
O=[N+]([O-])C1=CNc2nc(C(F)(F)F)nn2C1c1ccc(O)c(O)c1O (configuration not stated),pIC50,[1],4.33
same,CC50,[2],373 µM
same,selectivity ratio,[3],8
O=[N+]([O-])C1=CNc2ncnn2C1c1ccc(O)c(O)c1O (configuration not stated),pIC50,[1],3.23
same,CC50,[2],405 µM
same,selectivity ratio,[3],1
O=[N+]([O-])C1=NNc2nc(C(F)(F)F)nn2C1c1ccc(O)cc1O (configuration not stated),pIC50,[1],4.48
same,CC50,[2],108 µM
same,selectivity ratio,[3],3
